# Laboratory results taken from paper PMC11859928, “Design, Synthesis, and Antiproliferative Activity of Novel Indole/1,2,4-Triazole Hybrids as Tubulin Polymerization Inhibitors” (Pharmaceuticals, 2025).
# pIC50: −log10 of the molar value.
# Key:
# tubulin = biological target: T1, tubulin (Sus scrofa, UniProt P02550+P02554); test: Tubulin polymerization inhibitory assay; assay type: biochemical
# T1 construct: purchased Cytoskeleton Inc., Denver, CO, USA
# From the text: The substances’ effects on tubulin polymerization were examined using the Tubulin Polymerization Assay Kit (Cytoskeleton Inc., Denver, CO, USA) according to the supplier’s instructions, with details described in Appendix A..
# The activity of compounds on tubulin polymerization was investigated using the Tubulin Polymerization Assay Kit (Cytoskeleton Inc., Denver, CO, USA), which works via fluorescent reporter enhancement. […] Docetaxel and vincristine (Apoteket AB, Stockholm, Sweden) served as positive stabilizing and destabilizing controls. Both were used at a 3 µM concentration in PBS.
# [1] = system: multi-drug resistant K562R cell line; set-up: method as in PMID 33038796; settings: cited from earlier work
# [2] = system: SGC-7901 cancer cell line; set-up: method as in PMID 37182330; settings: cited from earlier work
# T1 sequence (P02554 whole entry): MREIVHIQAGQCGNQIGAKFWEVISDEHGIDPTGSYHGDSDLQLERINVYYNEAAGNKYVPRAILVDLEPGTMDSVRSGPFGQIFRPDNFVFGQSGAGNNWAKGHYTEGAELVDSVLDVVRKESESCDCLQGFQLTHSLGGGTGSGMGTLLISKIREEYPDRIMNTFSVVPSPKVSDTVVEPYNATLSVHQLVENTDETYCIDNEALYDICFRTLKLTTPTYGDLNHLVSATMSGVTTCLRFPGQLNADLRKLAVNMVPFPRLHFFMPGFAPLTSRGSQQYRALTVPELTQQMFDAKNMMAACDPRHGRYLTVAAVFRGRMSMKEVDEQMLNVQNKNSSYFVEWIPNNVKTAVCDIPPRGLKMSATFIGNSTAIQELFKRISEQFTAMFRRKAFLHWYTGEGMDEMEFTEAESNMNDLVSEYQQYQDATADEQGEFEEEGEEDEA
# T1 sequence (P02550 whole entry): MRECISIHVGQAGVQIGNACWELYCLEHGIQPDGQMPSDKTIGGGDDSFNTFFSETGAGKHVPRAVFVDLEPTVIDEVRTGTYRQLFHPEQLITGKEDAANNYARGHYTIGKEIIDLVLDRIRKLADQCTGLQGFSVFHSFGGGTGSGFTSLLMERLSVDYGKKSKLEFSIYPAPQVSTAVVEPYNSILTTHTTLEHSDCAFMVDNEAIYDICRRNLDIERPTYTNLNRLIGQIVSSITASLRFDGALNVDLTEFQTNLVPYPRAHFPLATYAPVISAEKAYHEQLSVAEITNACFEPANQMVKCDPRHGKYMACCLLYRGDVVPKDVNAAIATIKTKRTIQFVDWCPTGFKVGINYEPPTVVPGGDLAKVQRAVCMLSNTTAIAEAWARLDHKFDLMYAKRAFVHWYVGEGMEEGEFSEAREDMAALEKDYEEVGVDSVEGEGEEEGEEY
structure (smiles),measurement,setting,value
"COc1ccc(/C=C\c2cc(OC)c(OC)c(OC)c2)cc1O [CA-4, combretastatin A-4, reference compound]",%inhibition,tubulin; conc 0.01 (unit not given; IC50 from this curve in µg/ml),8.7%
same,%inhibition,tubulin; conc 0.1 (unit not given; IC50 from this curve in µg/ml),21.2%
same,%inhibition,tubulin; conc 1 (unit not given; IC50 from this curve in µg/ml),34.9%
same,%inhibition,tubulin; conc 10 (unit not given; IC50 from this curve in µg/ml),59%
same,%inhibition,tubulin; conc 100 (unit not given; IC50 from this curve in µg/ml),84.2%
Cc1cc(-c2cccc(-c3c[nH]c4ccccc34)n2)c2ccccc2n1 [Compound III],"antiproliferative potency, times more effective than CA-4",[1],12 times
same,"antiproliferative potency, times more effective than isoCA-4",[1],1.5 times
COc1cc(-c2nc3scc(-c4cc(Cl)cc(Cl)c4)n3n2)cc(OC)c1OC [IV],pIC50,[2],6.68
